Laboratory results from paper PMC8245078, “Development of novel benzofuran-isatin conjugates as potential antiproliferative agents with apoptosis inducing mechanism in Colon cancer” (Journal of Enzyme Inhibition and Medicinal Chemistry, 2021).

Key:
[1] = tested on: Colon Cancer subpanel; type: cell-based, human
[2] = tested on: HT29; type: cell-based; details: Homo sapiens, HT-29; HT29, five-dose test; read-out: LC50 (the source's name)
[3] = tested on: EKVX; type: cell-based; details: five-dose test
[4] = tested on: HCC-2998; type: cell-based; details: HCC-2998, five-dose test
[5] = tested on: NCI-H522; type: cell-based; details: NCI-H522, five-dose test

`COc1ccc2c(c1)/C(=N/NC(=O)c1oc3ccccc3c1C)C(=O)N2` [Compound 5d] was tested, and the GI50 ([1]; Homo sapiens, Colon Cancer subpanel, read-out: MG-MID (GI50 average of the subpanel)) was 1.92 µM, the Selectivity index ([1]; full panel MID / subpanel MID, Colon Cancer) was 1.30 and the CC50 [2] was greater than 100 µM. For the same compound, the GI50 ([3]; Homo sapiens) was 2.94 µM, the LC50 (concentration giving 50% net cell kill) ([3]; Homo sapiens) was greater than 100 µM and the TGI [3] was greater than 100 µM. It also gave a TGI [4] greater than 100 µM, a CC50 ([4]; Homo sapiens, read-out: LC50 (the source's name)) greater than 100 µM and a GI50 ([5]; Homo sapiens) of 6.07 µM. For the same compound, the LC50 (concentration killing 50% of cells) ([5]; Homo sapiens) was greater than 100 µM and the TGI [5] was greater than 100 µM.
